Reference: US20250360125A1, “METHODS AND COMPOSITIONS FOR TREATING HUNTINGTON'S DISEASE AND ITS SYMPTOMS” (Corcept Therapeutics Incorporated, priority 2023, published 2025)

Legend:
R6/2 mouse model [1] = assay: Forelimb grip strength in R6/2 mice; format: in vivo; settings: 30 mg/kg s.c. daily for 5 weeks
Procedure: (§1) HD and wild-type (WT) R6/2 mice were purchased from JAX (The Jackson Laboratory, ME, USA) and arrived in the animal facility at 4-weeks of age. The mice were housed under normal conditions (room temperature, 12 hours light/dark cycle) with food and water ab libitum. The mice were housed 3-4 per cage, separated by sex, but different genotypes were housed together to improve the survival of the HD mice^11. Genotyping on tail samples that were collected post-mortem was performed by Laragen (CA, USA) to confirm that all HD mice had between 120-130 CAG repeats.
Animal studies: experimental procedures From 6 weeks of age onwards, mice received a daily subcutaneous (s.c.) injection either with 30 mg/kg of CORT113176 or vehicle (Veh; 10% ethanol and castor oil in experiment 1 or sesame oil in experiment 2) for five consecutive weeks. In experiment 1, male and female mice were assigned into one of the following groups: 1) WT+Veh (n=5 per sex), 2) WT+CORT113176 (n=5), 3) HD+Veh (n=5) or 4) HD+CORT113176 (n=5). […] Bodyweight was measured weekly and motor tests were performed at 1 PM to monitor the disease progression (as described below). […]
Grip strength: Grip strength measurements were performed weekly to quantify muscle strength. […] The mouse was then gently pulled away until grip was lost, and the force that was required to do this was monitored. […]

Iba1 = Iba1 immunohistochemistry (microglia marker) in hippocampus of R6/2 mice; format: in vivo, mouse; settings: experiment 1, male HD R6/2 mice, 30 mg/kg s.c. daily for 5 weeks
Procedure: (§2) Animal studies: experimental procedures From 6 weeks of age onwards, mice received a daily subcutaneous (s.c.) injection either with 30 mg/kg of CORT113176 or vehicle (Veh; 10% ethanol and castor oil in experiment 1 or sesame oil in experiment 2) for five consecutive weeks. In experiment 1, male and female mice were assigned into one of the following groups: 1) WT+Veh (n=5 per sex), 2) WT+CORT113176 (n=5), 3) HD+Veh (n=5) or 4) HD+CORT113176 (n=5). In the final analysis there was an unequal group distribution for the male mice due to a mislabeled genotype and a mouse reaching an earlier endpoint resulting in n=6 in the WT+Veh group and n=3 in the HD+Veh group. […] Bodyweight was measured weekly and motor tests were performed at 1 PM to monitor the disease progression (as described below). […] The slides of DARP32, GFAP and Iba1 were scanned with the Axio Slide Scanner (Zeiss, Axio Slide Scan.Z1) and the mHtt slides were analyzed using the confocal microscope (Leica, White Light Laser Confocal Microscope TCS SP8 X). All obtained images were analyzed using ImageJ (version 1.52p). DARP32, GFAP and Iba1 the mean intensity was measured in the striatum and hippocampus. The total number of aggregates in a specific region of interest (ROI), the total area in the ROI and the average size of the aggregates were measured.

mHtt aggregates = assay: mHtt aggregate immunohistochemistry in striatum and hippocampal CA1 of R6/2 mice; format: in vivo, mouse; settings: experiment 2, male HD R6/2 mice, vs vehicle-treated HD mice
Procedure: Animal studies: experimental procedures From 6 weeks of age onwards, mice received a daily subcutaneous (s.c.) injection either with 30 mg/kg of CORT113176 or vehicle (Veh; 10% ethanol and castor oil in experiment 1 or sesame oil in experiment 2) for five consecutive weeks. In experiment 1, male and female mice were assigned into one of the following groups: 1) WT+Veh (n=5 per sex), 2) WT+CORT113176 (n=5), 3) HD+Veh (n=5) or 4) HD+CORT113176 (n=5). In the final analysis there was an unequal group distribution for the male mice due to a mislabeled genotype and a mouse reaching an earlier endpoint resulting in n=6 in the WT+Veh group and n=3 in the HD+Veh group. In experiment 2, male mice were assigned into the following groups: 1) WT+Veh (n=10), 2) HD+Veh (n=10, ultimately n=8 due to a non-responder that met outlier criteria and a mouse reaching an earlier timepoint) and 3) HD+CORT113176 (n=10). Bodyweight was measured weekly and motor tests were performed at 1 PM to monitor the disease progression (as described below). On day 19 and day 34, blood samples were taken in the morning to evaluate corticosterone levels. On day 34, the animals were sacrificed using CO2 inhalation, blood was collected via cardiac puncture and the animals were perfused with cold PBS. Afterwards, several tissues were harvested and snap-frozen for further analysis. Brains were collected and stored for 24 hours at 4% PFA for IHC (further described below). Immunohistochemistry Brains were isolated and the left hemisphere was fixated in 4% PFA (Sigma-Aldrich, 8187085000) for 24 hours. Afterwards the brains were transferred to a 30% sucrose solution for 24-48 hours and stored at −80° C. until further processing. Cryosections of 10 μM were collected (CryoStar NX70) on slides (Avantor, VWR® Microscope Slides, 631-1166) and stored at −20° C. until staining. The slides were incubated for 25 minutes with 0.1% Triton X-100 (Sigma-Aldrich), washed with 0.1% PBS/Tween (Tween®20, Sigma-Aldrich). The background signal was blocked with 5% PBSA for 30 minutes before the incubation with the primary antibody DARP32, (1:500, abcam, EP720Y, ab40801), GFAP (1:500, Agilent DAKO, Z0334), Iba1, (1:500, Fujifilm Wako, 019-19741) or mHtt, 1:500 (1:500, abcam, EPR5526, ab209668) overnight at 4° C. The following day slides were washed with 0.1% PBS/Tween before incubation with the secondary antibody goat anti-rabbit Alexa Fluor 488 (1:250, Invitrogen, A-110088) for 30 minutes. After a final wash with 0.1% PBS/Tween, ProLong gold with DAPI (Invitrogen, P36931) was added with a coverslip (Thermo-Fisher, Menzel-Glaser, 0980) and the slides were dried at room temperature. The slides of DARP32, GFAP and Iba1 were scanned with the Axio Slide Scanner (Zeiss, Axio Slide Scan.Z1) and the mHtt slides were analyzed using the confocal microscope (Leica, White Light Laser Confocal Microscope TCS SP8 X). All obtained images were analyzed using ImageJ (version 1.52p). DARP32, GFAP and Iba1 the mean intensity was measured in the striatum and hippocampus. The total number of aggregates in a specific region of interest (ROI), the total area in the ROI and the average size of the aggregates were measured.

R6/2 mouse model [2] = assay: Observed epileptic seizures in R6/2 mice (Racine scale); format: in vivo
Procedure: as §1
Animal studies: experimental procedures From 6 weeks of age onwards, mice received a daily subcutaneous (s.c.) injection either with 30 mg/kg of CORT113176 or vehicle (Veh; 10% ethanol and castor oil in experiment 1 or sesame oil in experiment 2) for five consecutive weeks. In experiment 1, male and female mice were assigned into one of the following groups: 1) WT+Veh (n=5 per sex), 2) WT+CORT113176 (n=5), 3) HD+Veh (n=5) or 4) HD+CORT113176 (n=5). In the final analysis there was an unequal group distribution for the male mice due to a mislabeled genotype and a mouse reaching an earlier endpoint resulting in n=6 in the WT+Veh group and n=3 in the HD+Veh group. In experiment 2, male mice were assigned into the following groups: 1) WT+Veh (n=10), 2) HD+Veh (n=10, ultimately n=8 due to a non-responder that met outlier criteria and a mouse reaching an earlier timepoint) and 3) HD+CORT113176 (n=10). Bodyweight was measured weekly and motor tests were performed at 1 PM to monitor the disease progression (as described below). On day 19 and day 34, blood samples were taken in the morning to evaluate corticosterone levels. On day 34, the animals were sacrificed using CO2 inhalation, blood was collected via cardiac puncture and the animals were perfused with cold PBS. Afterwards, several tissues were harvested and snap-frozen for further analysis. Brains were collected and stored for 24 hours at 4% PFA for IHC (further described below).
These seizures were not anticipated, but every case was documented throughout the experiment and scored using the Racine scale^15.

R6/2 mouse model [3] = assay: Hindlimb clasping test in R6/2 mice; format: in vivo; settings: 30 mg/kg s.c. daily for 5 weeks
Procedure: as §1
Animal studies: experimental procedures From 6 weeks of age onwards, mice received a daily subcutaneous (s.c.) injection either with 30 mg/kg of CORT113176 or vehicle (Veh; 10% ethanol and castor oil in experiment 1 or sesame oil in experiment 2) for five consecutive weeks. In experiment 1, male and female mice were assigned into one of the following groups: 1) WT+Veh (n=5 per sex), 2) WT+CORT113176 (n=5), 3) HD+Veh (n=5) or 4) HD+CORT113176 (n=5). In the final analysis there was an unequal group distribution for the male mice due to a mislabeled genotype and a mouse reaching an earlier endpoint resulting in n=6 in the WT+Veh group and n=3 in the HD+Veh group. In experiment 2, male mice were assigned into the following groups: 1) WT+Veh (n=10), 2) HD+Veh (n=10, ultimately n=8 due to a non-responder that met outlier criteria and a mouse reaching an earlier timepoint) and 3) HD+CORT113176 (n=10). Bodyweight was measured weekly and motor tests were performed at 1 PM to monitor the disease progression (as described below). On day 19 and day 34, blood samples were taken in the morning to evaluate corticosterone levels. On day 34, the animals were sacrificed using CO2 inhalation, blood was collected via cardiac puncture and the animals were perfused with cold PBS. Afterwards, several tissues were harvested and snap-frozen for further analysis. Brains were collected and stored for 24 hours at 4% PFA for IHC (further described below). […]

GFAP = GFAP immunohistochemistry (astrocyte marker) in striatum and hippocampus of R6/2 mice; format: in vivo, mouse; settings: experiment 1, male HD R6/2 mice, 30 mg/kg s.c. daily for 5 weeks
Procedure: as §2

R6/2 mouse model [4] = assay: Gait abnormalities in R6/2 mice; format: in vivo; settings: male R6/2 mice
other steroid receptors = settings: no test described; cited from earlier work
[5] = experiment 1, male HD R6/2 mice, vs vehicle-treated HD mice
[6] = experiment 2 (larger cohort), male HD R6/2 mice, vs vehicle

O=C(c1ccccn1)[C@]12Cc3cnn(-c4ccc(F)cc4)c3C=C1CCN(S(=O)(=O)c1ccc(C(F)(F)F)cc1)C2 [CORT113176]
Forelimb grip strength over time (R6/2 mouse model [1]; [5]): attenuated this decrease of muscle function | Grip strength (R6/2 mouse model [1]; [6]): improved grip strength | Iba1 intensity in hippocampus (Iba1): tended to be higher | Number of mHtt aggregates in striatum (mHtt aggregates): significantly decreased this number of mHtt aggregates | Total mHtt aggregate area in CA1 region of hippocampus (mHtt aggregates): smaller total aggregate area | Total number of mHtt aggregates in CA1 region of hippocampus (mHtt aggregates): significantly fewer aggregates | mHtt aggregate size in CA1 region of hippocampus (mHtt aggregates): smaller aggregates | mHtt aggregate size in striatum (mHtt aggregates): of a similar size in vehicle- and CORT113176-treated HD groups | Total number of epileptic seizures (R6/2 mouse model [2]; experiment 1, female HD R6/2 mice, 30 mg/kg s.c. daily for 5 weeks): none were observed | Total number of epileptic seizures (R6/2 mouse model [2]; experiment 1, male HD R6/2 mice, 30 mg/kg s.c. daily for 5 weeks, vs vehicle-treated HD mice): occurred slightly more frequently in the vehicle-treated HD mice | Time of occurrence of epileptic seizures (R6/2 mouse model [2]; experiment 1, treated HD R6/2 mice, 5-week study): occurred mostly near the end of the five weeks (day 32) | Number of epileptic seizures (R6/2 mouse model [2]; experiment 2 (larger cohort), male HD R6/2 mice, 30 mg/kg s.c. daily for 5 weeks): Only one epileptic seizure was observed | Hindlimb clasping score (R6/2 mouse model [3]; experiment 1, female HD R6/2 mice): at later timepoints the treatment did attenuate the clasping score | Hindlimb clasping score (R6/2 mouse model [3]; [5]): reduced clasping score | Clasping score (R6/2 mouse model [3]; [6]): reduced clasping score | GFAP immunoreactivity in striatum (GFAP): normalized GFAP levels in male | GFAP staining intensity in hippocampus (GFAP): tended to normalize this HD effect | Gait abnormalities (R6/2 mouse model [4]): significantly delayed | Cross-reactivity with other steroid receptors (selectivity for GR) (other steroid receptors): lacks significant cross-reactivity with other steroid receptors

CC#C[C@]1(O)CC[C@H]2[C@@H]3CCC4=CC(=O)CCC4=C3[C@@H](c3ccc(N(C)C)cc3)C[C@@]21C [mifepristone, reference compound]
Cross-reactivity with other steroid receptors (selectivity for GR) (other steroid receptors): is not specific for GR

CC(C)n1ncc(S(=O)(=O)N2CC[C@H]3Cc4c(cnn4-c4ccc(F)cc4)C[C@]3(C(=O)c3cscn3)C2)n1 [zavacorilant, ((4aR,8aS)-1-(4-fluorophenyl)-6-((2-isopropyl-2H-1,2,3-triazol-4-yl)sulfonyl)-4,4a,5,6,7,8,8a,9-octahydro-1H-pyrazolo[3,4-g]isoquinolin-4a-yl)(thiazol-4-yl)methanone]
Cross-reactivity with other steroid receptors (selectivity for GR) (other steroid receptors): lacks significant cross-reactivity with other steroid receptors
